System: NCI-H211 complex spheroid viability
Experiment: Anticancer human tumor NCI-H211 cell line growth inhibition [LSD1];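 note: luminescent viability read after seven days of drug exposure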;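 for viability, T/C: 100% = DMSO vehicle control viability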
Conditions: for IC50: curve of first compound; for viability, T/C: stronger effect = lower value
Procedure, shortened: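 Complex spheroids of tumor cells with HUVEC and human MSCs, exposed to iadademstat combined with other agents. Each agent tested in half-log steps from near clinical Cmax (else 10 microM top), DMSO ≤0.25%.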

[1] = second compound 0.1 µM, first compound 0.0316 µM
[2] = second compound 0.1 µM, first compound 0.1 µM
[3] = second compound 0.316 µM, first compound 0.0316 µM
[4] = second compound 0.316 µM, first compound 0.1 µM
[5] = second compound 1 µM, first compound 0.0316 µM
[6] = second compound 1 µM, first compound 0.1 µM
[7] = second compound 3.16 µM, first compound 0.0316 µM
[8] = second compound 3.16 µM, first compound 0.1 µM
[9] = second compound 10 µM, first compound 0.0316 µM
[10] = second compound 10 µM, first compound 0.1 µM
[11] = second compound 0.1 µM, first compound 0.000949 µM
[12] = second compound 0.1 µM, first compound 0.003 µM
[13] = second compound 0.1 µM, first compound 0.00949 µM
[14] = second compound 0.1 µM, first compound 0.03 µM
[15] = second compound 0.1 µM, first compound 0.0949 µM
[16] = second compound 0.1 µM, first compound 0.3 µM
[17] = second compound 0.316 µM, first compound 0.000949 µM
[18] = second compound 0.316 µM, first compound 0.003 µM
[19] = second compound 0.316 µM, first compound 0.00949 µM
[20] = second compound 0.316 µM, first compound 0.03 µM
[21] = second compound 0.316 µM, first compound 0.0949 µM
[22] = second compound 0.316 µM, first compound 0.3 µM
[23] = second compound 1 µM, first compound 0.000949 µM
[24] = second compound 1 µM, first compound 0.003 µM
[25] = second compound 1 µM, first compound 0.00949 µM
[26] = second compound 1 µM, first compound 0.03 µM
[27] = second compound 1 µM, first compound 0.0949 µM
[28] = second compound 1 µM, first compound 0.3 µM
[29] = second compound 3.16 µM, first compound 0.000949 µM
[30] = second compound 3.16 µM, first compound 0.003 µM
[31] = second compound 3.16 µM, first compound 0.00949 µM
[32] = second compound 3.16 µM, first compound 0.03 µM
[33] = second compound 3.16 µM, first compound 0.0949 µM
[34] = second compound 3.16 µM, first compound 0.3 µM
[35] = second compound 10 µM, first compound 0.000949 µM
[36] = second compound 10 µM, first compound 0.003 µM
[37] = second compound 10 µM, first compound 0.00949 µM
[38] = second compound 10 µM, first compound 0.03 µM
[39] = second compound 10 µM, first compound 0.0949 µM
[40] = second compound 10 µM, first compound 0.3 µM

SMILES: CC[C@@]1(O)C(=O)OCc2c1cc1n(c2=O)Cc2cc3c(CN(C)C)c(O)ccc3nc2-1 + NC1CCC(NC2CC2c2ccccc2)CC1
- IC50 (second compound 0.1 µM): 0.337 nM
- IC50 (second compound 0.316 µM): 0.355 nM
- IC50 (second compound 1 µM): 0.329 nM
- IC50 (second compound 3.16 µM): < 0.316 nM
- IC50 (second compound 10 µM): < 0.316 nM
- viability, T/C (second compound 0.1 µM, first compound 0.000316 µM): 52.3%
- viability, T/C (second compound 0.1 µM, first compound 0.001 µM): 11.6%
- viability, T/C (second compound 0.1 µM, first compound 0.00316 µM): 2.63%
- viability, T/C (second compound 0.1 µM, first compound 0.01 µM): 7.01%
- viability, T/C [1]: 1.98%
- viability, T/C [2]: 1.11%
- viability, T/C (second compound 0.316 µM, first compound 0.000316 µM): 54.4%
- viability, T/C (second compound 0.316 µM, first compound 0.001 µM): 11.1%
- viability, T/C (second compound 0.316 µM, first compound 0.00316 µM): 1.88%
- viability, T/C (second compound 0.316 µM, first compound 0.01 µM): 2.29%
- viability, T/C [3]: 2.33%
- viability, T/C [4]: 1.04%
- viability, T/C (second compound 1 µM, first compound 0.000316 µM): 51.4%
- viability, T/C (second compound 1 µM, first compound 0.001 µM): 10.3%
- viability, T/C (second compound 1 µM, first compound 0.00316 µM): 3.14%
- viability, T/C (second compound 1 µM, first compound 0.01 µM): 2.71%
- viability, T/C [5]: 7%
- viability, T/C [6]: 1.06%
- viability, T/C (second compound 3.16 µM, first compound 0.000316 µM): 49%
- viability, T/C (second compound 3.16 µM, first compound 0.001 µM): 9.4%
- viability, T/C (second compound 3.16 µM, first compound 0.00316 µM): 2.42%
- viability, T/C (second compound 3.16 µM, first compound 0.01 µM): 1.93%
- viability, T/C [7]: 1.88%
- viability, T/C [8]: 1.01%
- viability, T/C (second compound 10 µM, first compound 0.000316 µM): 28.7%
- viability, T/C (second compound 10 µM, first compound 0.001 µM): 6.59%
- viability, T/C (second compound 10 µM, first compound 0.00316 µM): 1.13%
- viability, T/C (second compound 10 µM, first compound 0.01 µM): 1.34%
- viability, T/C [9]: 0.81%
- viability, T/C [10]: 0.51%

SMILES: CCc1c2c(nc3ccc(O)cc13)-c1cc3c(c(=O)n1C2)COC(=O)[C@]3(O)CC + NC1CCC(NC2CC2c2ccccc2)CC1
- IC50 (second compound 0.1 µM): < 0.949 nM
- IC50 (second compound 0.316 µM): < 0.949 nM
- IC50 (second compound 1 µM): < 0.949 nM
- IC50 (second compound 3.16 µM): < 0.949 nM
- IC50 (second compound 10 µM): < 0.949 nM
- viability, T/C [11]: 1.98%
- viability, T/C [12]: 3.23%
- viability, T/C [13]: 0.6%
- viability, T/C [14]: 0.92%
- viability, T/C [15]: 0.04%
- viability, T/C [16]: 0.14%
- viability, T/C [17]: 1.86%
- viability, T/C [18]: 0.71%
- viability, T/C [19]: 0.57%
- viability, T/C [20]: 0.69%
- viability, T/C [21]: 0.03%
- viability, T/C [22]: 0.27%
- viability, T/C [23]: 2.45%
- viability, T/C [24]: 1.08%
- viability, T/C [25]: 0.51%
- viability, T/C [26]: 0.73%
- viability, T/C [27]: 0.06%
- viability, T/C [28]: 0.61%
- viability, T/C [29]: 0.94%
- viability, T/C [30]: 0.56%
- viability, T/C [31]: 0.41%
- viability, T/C [32]: 0.58%
- viability, T/C [33]: 0.5%
- viability, T/C [34]: 0.13%
- viability, T/C [35]: 0.65%
- viability, T/C [36]: 0.19%
- viability, T/C [37]: 0.2%
- viability, T/C [38]: 0.27%
- viability, T/C [39]: 0.13%
- viability, T/C [40]: 0.19%

SMILES: Nc1ccccc1NC(=O)c1ccc(CNC(=O)OCc2cccnc2)cc1 + NC1CCC(NC2CC2c2ccccc2)CC1
- IC50 (second compound 0.1 µM): 11.9 nM
- IC50 (second compound 0.316 µM): 13.2 nM
- IC50 (second compound 1 µM): 9.95 nM
- IC50 (second compound 3.16 µM): < 9.49 nM
- IC50 (second compound 10 µM): < 9.49 nM
- viability, T/C [13]: 54.5%
- viability, T/C [14]: 32.1%
- viability, T/C [15]: 4.58%
- viability, T/C [16]: 1.24%
- viability, T/C (second compound 0.1 µM, first compound 0.949 µM): 0.63%
- viability, T/C (second compound 0.1 µM, first compound 3 µM): 0.12%
- viability, T/C [19]: 55.7%
- viability, T/C [20]: 35.9%
- viability, T/C [21]: 4.66%
- viability, T/C [22]: 1.07%
- viability, T/C (second compound 0.316 µM, first compound 0.949 µM): 0.8%
- viability, T/C (second compound 0.316 µM, first compound 3 µM): 0.15%
- viability, T/C [25]: 51%
- viability, T/C [26]: 27.2%
- viability, T/C [27]: 3.65%
- viability, T/C [28]: 0.99%
- viability, T/C (second compound 1 µM, first compound 0.949 µM): 0.68%
- viability, T/C (second compound 1 µM, first compound 3 µM): 0.11%
- viability, T/C [31]: 38%
- viability, T/C [32]: 20.3%
- viability, T/C [33]: 3.37%
- viability, T/C [34]: 0.53%
- viability, T/C (second compound 3.16 µM, first compound 0.949 µM): 0.39%
- viability, T/C (second compound 3.16 µM, first compound 3 µM): 0.12%
- viability, T/C [37]: 29.4%
- viability, T/C [38]: 6.92%
- viability, T/C [39]: 1%
- viability, T/C [40]: 0.3%
- viability, T/C (second compound 10 µM, first compound 0.949 µM): 0.22%
- viability, T/C (second compound 10 µM, first compound 3 µM): 5.88%

SMILES: Nc1ccn(C2OC(CO)C(O)C2(F)F)c(=O)n1 (stereo not given) + NC1CCC(NC2CC2c2ccccc2)CC1
- IC50 (second compound 0.1 µM): < 0.949 nM
- IC50 (second compound 0.316 µM): < 0.949 nM
- IC50 (second compound 1 µM): < 0.949 nM
- IC50 (second compound 3.16 µM): < 0.949 nM
- IC50 (second compound 10 µM): < 0.949 nM
- viability, T/C [11]: 2.51%
- viability, T/C [12]: 2.16%
- viability, T/C [13]: 2.36%
- viability, T/C [14]: 1.86%
- viability, T/C [15]: 2.26%
- viability, T/C [16]: 2.41%
- viability, T/C [17]: 2.59%
- viability, T/C [18]: 2.18%
- viability, T/C [19]: 2.35%
- viability, T/C [20]: 2.12%
- viability, T/C [21]: 2.8%
- viability, T/C [22]: 2.37%
- viability, T/C [23]: 2.5%
- viability, T/C [24]: 1.98%
- viability, T/C [25]: 2.28%
- viability, T/C [26]: 2.01%
- viability, T/C [27]: 2.14%
- viability, T/C [28]: 2.46%
- viability, T/C [29]: 2.06%
- viability, T/C [30]: 3.05%
- viability, T/C [31]: 2.05%
- viability, T/C [32]: 1.95%
- viability, T/C [33]: 2.15%
- viability, T/C [34]: 2.13%
- viability, T/C [35]: 1.03%
- viability, T/C [36]: 0.96%
- viability, T/C [37]: 1.05%
- viability, T/C [38]: 0.79%
- viability, T/C [39]: 0.64%
- viability, T/C [40]: 1.61%

SMILES: O=C(c1cc(Cc2n[nH]c(=O)c3ccccc23)ccc1F)N1CCN(C(=O)C2CC2)CC1 + NC1CCC(NC2CC2c2ccccc2)CC1
- IC50 (second compound 0.1 µM): < 31.6 nM
- IC50 (second compound 0.316 µM): < 31.6 nM
- IC50 (second compound 1 µM): < 31.6 nM
- IC50 (second compound 3.16 µM): < 31.6 nM
- IC50 (second compound 10 µM): < 31.6 nM
- viability, T/C [1]: 41.8%
- viability, T/C [2]: 26.4%
- viability, T/C (second compound 0.1 µM, first compound 0.316 µM): 6.09%
- viability, T/C (second compound 0.1 µM, first compound 1 µM): 2.71%
- viability, T/C (second compound 0.1 µM, first compound 3.16 µM): 2.42%
- viability, T/C (second compound 0.1 µM, first compound 10 µM): 2.07%
- viability, T/C [3]: 44.4%
- viability, T/C [4]: 27.7%
- viability, T/C (second compound 0.316 µM, first compound 0.316 µM): 6.03%
- viability, T/C (second compound 0.316 µM, first compound 1 µM): 2.23%
- viability, T/C (second compound 0.316 µM, first compound 3.16 µM): 2.6%
- viability, T/C (second compound 0.316 µM, first compound 10 µM): 2.2%
- viability, T/C [5]: 41.1%
- viability, T/C [6]: 27.1%
- viability, T/C (second compound 1 µM, first compound 0.316 µM): 5.68%
- viability, T/C (second compound 1 µM, first compound 1 µM): 2.69%
- viability, T/C (second compound 1 µM, first compound 3.16 µM): 3.18%
- viability, T/C (second compound 1 µM, first compound 10 µM): 2.72%
- viability, T/C [7]: 35.5%
- viability, T/C [8]: 21.8%
- viability, T/C (second compound 3.16 µM, first compound 0.316 µM): 4.95%
- viability, T/C (second compound 3.16 µM, first compound 1 µM): 1.97%
- viability, T/C (second compound 3.16 µM, first compound 3.16 µM): 2.43%
- viability, T/C (second compound 3.16 µM, first compound 10 µM): 2.46%
- viability, T/C [9]: 18.2%
- viability, T/C [10]: 11.2%
- viability, T/C (second compound 10 µM, first compound 0.316 µM): 1.78%
- viability, T/C (second compound 10 µM, first compound 1 µM): 1.3%
- viability, T/C (second compound 10 µM, first compound 3.16 µM): 1.25%
- viability, T/C (second compound 10 µM, first compound 10 µM): 1.37%
